In patent publication US5244908A, “Imidazopyridine derivatives and their pharmaceutical use” (Takeda Chemical Industries, Ltd., priority 1990, dated 1993):
Where a name gives a salt, the structure may show the parent alone.

Target: calmodulin (Bos taurus, UniProt P62157)
Assay: Calmodulin inhibitory activity (calmodulin-activated cyclic nucleotide phosphodiesterase, [3H]cGMP)
Assay type: biochemical
Details: 10^-5 M

SMILES	inhibition at 10 µM
CCCCCCCCCCCCCCCCS(=O)(=O)NCCSc1cccc2nccn12 [Compound 9, 5-[2-(Hexadecylsulfonylamino)ethylthio]imidazo[1,2-a]pyridine]	100%
CS(=O)(=O)NCCSc1cccc2ncc(CN3CCOCC3)n12 [Compound 14, 5-[2-(methylsulfonylamino)ethylthio]3-morpholinomethylimidazo[1,2-a]pyridine]	85%
CN(C)Cc1cnc2cccc(SCCNS(C)(=O)=O)n12 [Compound 16, 3-Dimethylaminomethyl-5-[2-(methylsulfonylamino)ethylthio]imidazo[1,2-a]pyridine.dihydrochloride]	66%
O=S(=O)(/C=C/c1ccccc1)N(CCSc1cccc2nccn12)S(=O)(=O)/C=C/c1ccccc1 [Compound 50, 5-[2-[N,N-di-(E)-Styrylsulfonylamino]ethylthio]imidazo[1,2-a]pyridine]	65%
CS(=O)(=O)NCCOc1cccc2nccn12 [Compound 62, 5-[2-(Methylsulfonylamino)ethyloxy]imidazo[1,2-a]pyridine]	79%
CS(=O)(=O)NCC(Oc1cccc2nccn12)c1ccccc1 (centres unmarked) [Compound 74, 5-[2-(Methylsulfonylamino)-1-(phenyl)ethyloxy]imidazo[1,2-a]pyridine]	50%
O=S(=O)(NCC(Oc1cccc2nccn12)c1ccccc1)C(F)(F)F (centres unmarked) [Compound 75, 5-[[1-(Phenyl)-2-(trifluoromethylsulfonylamino)]ethyloxy]imidazo[1,2-a]pyridine]	55%
O=S(=O)(N1CCC(Oc2cccc3nccn23)CC1)C(F)(F)F [Compound 77, 5-[1-(Trifuloromethylsulfonyl)-4-piperidyloxy]imidazo[1,2-a]pyridine]	80%
O=S(=O)(NCCCOc1cccc2nccn12)c1cccc2ccccc12 [Compound 79, 5-[3-(1-(Naphthyl)sulfonylamino)propyloxy]imidazo[1,2-a]pyridine]	50%
CCCNC(=O)NCCSc1cccc2nccn12 [Compound 102, 5-[2-(Propylcarbamoylamino)ethylthio]imidazo[1,2-a]pyridine]	52%
CC(C)NC(=O)NCCSc1cccc2nccn12 [Compound 103, 5-[2-(Isopropylcarbamoylamino)ethylthio]imidazo[1,2-a]pyridine]	52%
O=C(NCCSc1cccc2nccn12)NC1CCCCC1 [Compound 105, 5-[2-(Cyclohexylcarbamoylamino)ethylthio]imidazo[1,2-a]pyridine]	67%
Cc1cn2c(SCCNC(=S)Nc3ccccc3)cccc2n1 [Compound 115, 2-Methyl-5-[2-(phenylthiocarbamoylamino)ethylthio]imidazo[1,2-a]pyridine]	53%
CNC(=O)OCCSc1cccc2nccn12 [Compound 118, 5-[2-(methylcarbamoyloxy)ethylthio]imidazo[1,2-a]pyridine]	74%
CCCOC(=O)NCCSc1cccc2nccn12 [Compound 130, 5-[2-(Propyloxycarbonylamino)ethylthio]imidazo[1,2-a]pyridine]	50%
CC(C)OC(=O)NCCSc1cccc2nccn12 [Compound 132, 5-[2-(Isopropyloxycarbonylamino)ethylthio]imidazo[1,2-a]pyridine]	50%
C=CCOC(=O)NCCSc1cccc2nccn12 [Compound 135, 5-[2-(Allyloxycarbonylamino)ethylthio]imidazo[1,2-a]pyridine]	60%
O=C(NCCSc1cccc2nccn12)OCC(Cl)(Cl)Cl [Compound 136, 5-[2-[2,2,2-(Trichloro)ethoxycarbonylamino]ethylthio]imidazo[1,2-a]pyridine]	52%
CC(C)OC(=O)NCCSc1cccc2ncc(CN3CCOCC3)n12 [Compound 144, 5-[2-(Isopropyloxycarbonylamino)ethylthio]-3-(morpholinomethyl)imidazo[1,2-a]pyridine]	60%
COC(=O)NCCCSc1cccc2nccn12 [Compound 145, 5-[3-(Methoxycarbonylamino)propylthio]imidazo[1,2-a]pyridine]	63%
CC(=O)N(CCCSc1cccc2nccn12)CCNc1ccccc1 [Compound 158, 5-[3-[[2-(Anilino)ethyl]-N-(acetyl)amino]propylthio]imidazo[1,2-a]pyridine]	81%
O=S(=O)(N1CCC(Sc2cccc3nccn23)CC1)C(F)(F)F [Compound 165, 5-[1-(trifluoromethanesulfonyl)4-piperidylthio]imidazo[1,2-a]pyridine]	65%
CC(C)OC(=O)NCCCCSc1cccc2nccn12 [Compound 169, 5-[4-(isopropyloxycarbonylamino)butylthio]imidazo[1,2-a]pyridine]	58%

Other lines, results leading:

inhibition at 10 µM	SMILES
50%	CC(C)S(=O)(=O)NCCSc1cccc2nccn12 [Compound 5, 5-[2-(Isopropylsulfonylamino)ethylthio]imidazo[1,2-a]pyridine]
100%	O=S(=O)(NCCSc1cccc2nccn12)C(F)(F)F [Compound 26, 5-[2-(Trifluoromethylsulfonylamino)ethylthio]imidazo[1,2-a]pyridine]
51%	CS(=O)(=O)NCCCSc1cccc2nccn12 [Compound 27, 5-[3-(Methylsulfonylamino)propylthio]imidazo[1,2-a]pyridine]
64%	O=S(=O)(NCCSc1cccc2nccn12)c1ccccc1 [Compound 30, 5-[2-(Phenylsulfonylamino)ethylthio]imidazo[1,2-a]pyridine]
62%	CC(=O)Nc1ccc(S(=O)(=O)NCCSc2cccc3nccn23)cc1 [Compound 32, 5-[2-[4-(Acetamido)phenylsulfonylamino]ethylthio]imidazo[1,2-a]pyridine]
53%	O=S(=O)(NCCSc1cccc2nccn12)c1ccc(Cl)cc1 [Compound 34, 5-[2-[4-(Chloro)phenylsulfonylamino]ethylthio]imidazo[1,2-a]pyridine]
58%	O=S(=O)(NCCSc1cccc2nccn12)c1cc(Cl)c(Cl)cc1Cl [Compound 37, 5-[2-[2,4,5-(Trichloro)phenylsulfonylamino]ethylthio]imidazo[1,2-a]pyridine]
100%	O=S(=O)(NCCSc1cccc2nccn12)c1cccc2ccccc12 [Compound 42, 5-[2-[(1-Naphthyl)sulfonylamino]ethylthio]imidazo[1,2-a]pyridine]
65%	O=S(=O)(NCCSc1cccc2nccn12)c1ccc2ccccc2c1 [Compound 44, 5-[2-[(2-Naphthyl)sulfonylamino]ethylthio]imidazo[1,2-a]pyridine]
50%	CN(C)c1cccc2c(S(=O)(=O)NCCSc3cccc4nccn34)cccc12 [Compound 48, 5-[2-[5-(Dimethylamino)-(1-naphthylsulfonylamino)]ethylthio]imidazo[1,2-a]pyridine]
83%	CC(=O)Nc1nc(C)c(S(=O)(=O)NCCSc2cccc3nccn23)s1 [Compound 51, 5-[2-[2-(Acetylamino)-4-(methyl)-(5-thiazolyl)sulfonylamino]ethylthio]imidazo[1,2-a]pyridine]
62%	Cc1cn2c(SCCNS(=O)(=O)c3cccc4ccccc34)cccc2n1 [Compound 56, 2-Methyl-5-[2-(1-naphthylsulfonylamino)ethylthio]imidazo[1,2-a]pyridine]
56%	O=S(=O)(NCCOc1cccc2nccn12)c1cccc2ccccc12 [Compound 78, 5-[2-(1-(Naphthyl)sulfonylamino)ethyloxy]imidazo[1,2-a]pyridine]
76%	CC(=O)NCCSc1cccc2nccn12 [Compound 83, 5-[2-(acetylamino)ethylthio]imidazo[1,2-a]pyridine]
69%	O=C(NCCSc1cccc2nccn12)C(F)(F)F [Compound 84, 5-[2-(Trifluoroacetylamino)ethylthio]imidazo[1,2-a]pyridine]
51%	O=C(NCCSc1cccc2nccn12)c1ccccc1 [Compound 87, 5-[2-(Benzoylamino)ethylthio]imidazo[1,2-a]pyridine]
54%	O=C(NCCSc1cccc2nccn12)c1cccs1 [Compound 89, 5-[2-[(2-Thenoylamino)]ethylthio]imidazo[1,2-a]pyridine]
56%	CCNC(=O)NCCSc1cccc2nccn12 [Compound 101, 5-[2-(Ethylcarbamoylamino)ethylthio]imidazo[1,2-a]pyridine]
50%	COc1ccc(NC(=S)NCCSc2cccc3nccn23)cc1 [Compound 109, 5-[2-[4-(Methoxy)phenylthiocarbamoylamino]ethylthio]imidazo[1,2-a]pyridine]
50%	COC(=O)NCCSc1cccc2nccn12 [Compound 128, 5-[2-(methoxycarbonylamino)ethylthio]imidazo[1,2-a]pyridine]
56%	O=S(=O)(NCCCCSc1cccc2nccn12)c1cccc2ccccc12 [Compound 168, 5-[4-(1-naphthalenesulfonylamino)butylthio]imidazo[1,2-a]pyridine]

System: rat heart
Assay: Effect on incidence of arrhythmia caused by ischemia and following reperfusion in rat heart
Assay type: in vivo
Details: 10 mg/kg oral, 1 hour before ligation; until 10 minutes after reperfusion
Protocol: Effect on incidence of arrhythmia caused by ischemia and following reperfusion in rat heart
Male Sprague Dawley rats (Japan Clea) of 9 to 10 weeks old were anesthetized with 50 mg/kg (i.p.) of sodium pentobarbital. The heart was exposed by a left thoractomy under artificial ventilation with room air and silk suture was placed under the main left coronary artery (LAD) to ligate for 5 minutes. Then, the ligature was released again for reperfusion. The incidence of ventricular tachycardia (VT), ventricular fibrillation (VF) and cardiac arrest (CA) caused until 10 minutes after reperfusion were noted. Medicines (compounds obtained in the above Examples) were orally administered (5 ml/kg) at 1 hour before tightening the ligature. The effect of medicines were estimated in comparison with the frequency of a group received a vehicle according to X^2 -test.

SMILES	CA (Frequency), cardiac arrest	VF (Frequency), ventricular fibrillation	VT (Frequency), ventricular tachycardia
CS(=O)(=O)NCCSc1cccc2ncc(CN3CCOCC3)n12 [Compound 14, 5-[2-(methylsulfonylamino)ethylthio]3-morpholinomethylimidazo[1,2-a]pyridine]	0/3	0/3	1/3
O=S(=O)(NCCSc1cccc2nccn12)C(F)(F)F [Compound 26, 5-[2-(Trifluoromethylsulfonylamino)ethylthio]imidazo[1,2-a]pyridine]	1/3	1/3	2/3

Same assay, conditions: 30 mg/kg oral, 1 hour before ligation; until 10 minutes after reperfusion

SMILES	CA (Frequency), cardiac arrest	VF (Frequency), ventricular fibrillation	VT (Frequency), ventricular tachycardia
CC(=O)Nc1ccc(S(=O)(=O)NCCSc2cccc3nccn23)cc1 [Compound 32, 5-[2-[4-(Acetamido)phenylsulfonylamino]ethylthio]imidazo[1,2-a]pyridine]	1/3	1/3	1/3
CNC(=O)OCCSc1cccc2nccn12 [Compound 118, 5-[2-(methylcarbamoyloxy)ethylthio]imidazo[1,2-a]pyridine]	0/3	1/3	1/3
